The test system of one series is Raji cells. Put plainly: Cell viability (CCK-8) of Raji cells with PCM4 and DOX. In kind it is cell-based, human. The conditions noted are these: result in words.
Series [1] deals with lymphoma and leukemia cells. Put plainly: Cell viability (CCK-8) of lymphoma and leukemia cells with PCM4. The note with it: result in words. In kind it is cell-based, human.
The subject of series [2] is primary human DLBCL cells (T69). Description: Serial colony formation (P1, P2) in methylcellulose, primary human DLBCL cells (T69). In kind it is cell-based. The conditions noted are these: also Raji and Jurkat (Fig. 6o, Supplementary Fig. 7r, s), result in words. From the text:
(§1) Mouse and human lymphoma cells formed colonies upon serum culture (P1). Single colonies of lymphoma cells were dispersed in methylcellulose-based medium MethoCul^TM M3630 (StemCell, 03630) or MethoCult™SF H4536 (StemCell, 04536). A representative plate was then washed and cells were resuspended and replated. After an additional 14 days, colonies were counted (P2).

In another series the test system is primary mouse BCL cells. Description: Serial colony formation of primary mouse BCL cells from Myc^Eμ mice. In kind it is cell-based. The note with it: result in words.
Source text: as §1

Series [3] deals with TRIB3 with AKT, p62, COP1, and PML. Put plainly: Co-IP of TRIB3/AKT, TRIB3/p62, TRIB3/COP1, TRIB3/PML (off-target). In kind it is cell-based. The note with it: result in words. How it is done: (§2) Co-IP experiments were performed as described previously. Briefly, cells were collected and lysed for 30 min on ice. Soluble lysates were incubated with the indicated antibodies at 4 °C overnight, followed by incubation with Protein A/G Plus-Agarose (Santa Cruz Biotechnology, TX, USA) at 4 °C for 2 h. Soluble lysates were incubated with the indicated Anti-Myc magnetic beads (Bimake.com, B26302), Anti-Flag Affinity Gel (Bimake.com, B23102) or Anti-HA Affinity Gel (Bimake.com, B23302) at 4 °C overnight. Immunocomplexes were separated from the beads and then boiled for 10 min. The precipitated proteins were subjected to SDS-PAGE and blotted with specific antibodies. For immunoblotting assays, proteins were extracted from cells, spleens, or lymphoma tissues using RIPA buffer (Cell Signaling Technology, MA, USA). A BCA Protein Assay Kit was used to determine protein concentrations. Protein extracts were separated by SDS-PAGE, transferred onto PVDF membranes, and subjected to immunoblot analysis. Western blot images were captured by a Tanon 5200 chemiluminescent imaging system (Tanon, Shanghai, […]). Human lymphoma and benign LN paraffin tissue microarrays were purchased from US Biomax (LM482a).

A further series deals with MYC protein. Description: MYC protein level by immunoblotting in Jurkat and Raji cells. In kind it is cell-based, human. The conditions noted are these: 4 μM, result in words. As for the experimental part: as §2
Background: In western blotting, separated proteins are transferred to a membrane and probed.

A further series relates to MYC and MAX. Description: Duolink PLA of MYC and MAX colocalization in Raji cells. The note with it: PCM4-treated Raji cells, result in words. In kind it is cell-based, human. As for the experimental part: A total of 1 × 10^6 cells were seeded overnight in a six-well plate. The next day, cells were collected, fixed in 4% paraformaldehyde solution, permeabilized with 0.5% Triton-X100, blocked with Duolink® Blocking Solution, and probed with antibodies directed against MYC (R&D, NB600-302, 1:100), TRIB3 (Novus, H00057761-M03, 1:100), UBE3B (Invitrogen, PA5-59390, 1:100), and MAX (Cell Signaling Technology, #4739, 1:100). The cells were then treated with the Duolink In Situ Red Starter Mouse/Rabbit kit (Sigma Aldrich, DUO92101-1KT) according to the manufacturer’s instructions. Images were captured with an OLYMPUS confocal microscope.

Series [4] deals with murine Myc^Eμ lymphoma cells in NSG mice. Put plainly: Limiting dilution transplantation of BCL cells into NSG mice (survival of secondary recipients). In kind it is in vivo, mouse. The note with it: NSG mice injected i.p. with lymphoma cells from PCM4 (2 mg/kg) group versus PCON group, 70 days; result in words. From the text:
To evaluate the survival rate of secondary recipients, these mice were monitored for 70 days. For the evaluation of IHC staining and protein expression, three mice of each group were killed at the end of treatment, and the thymuses, spleens and LNs were collected for pathology detection, Co-IP, and western blot assays.

The subject of a further series is Myc^Eμ BCL mice. Put plainly: Kaplan-Meier survival of Myc^Eμ BCL mice treated with DOX and peptide. In kind it is in vivo, mouse. The conditions noted are these: DOX 2 mg/kg i.p. once a week and PCM4 5 mg/kg i.v. three times a week, 3 months, result in words. How it is done:
(§3) To evaluate the survival rate, these mice were monitored for 8 months (Myc^Eμ mice). […] During the indicated treatments, tumor burden was evaluated by measuring the tumor volume to determine the therapeutic efficacy in the PDX models.

A further series deals with DLBCL^T64 PDX. Description: PDX model tumor growth and weight, DLBCL T64. In kind it is in vivo, human. The note with it: result in words. As for the experimental part:
(§4) Four 5-week-old male NSG mice were implanted subcutaneously with 200 μl of a 1:1 mixture of Matrigel® Basement Membrane Matrix High Concentration (Corning, 354230) and minced fresh tumor fragments resected from lymphoma patients. Approximately 3–4 weeks following implantation, the first-generation mice (G1) were killed, and tumor masses were isolated. The tumor cells were tested for human CD19 (BCL) or CD3 expression (T cell lymphoma), and the remaining tumor mass was cut into 3-mm^3 sections and passaged into 4–5 NSG mice as the second generation (G2). After stable passage of the third generation (G3), the tumor mass of the fourth generation (G4) was equally cut into 3-mm^3 pieces and then passaged subcutaneously into 30–50 NSG mice (100 μl of a 1:2 mixture of Matrigel and tumor tissue) for in vivo treatment (6–8 mice per group, dependent on the experimental drug treatment). During and after treatment with the vehicle control or the indicated agent, tumor burden was evaluated by measuring the tumor volume to determine the therapeutic efficacy in the PDX models. […]
as §3

The test system of another series is TLBL^T123 PDX. Put plainly: PDX model tumor growth and weight, T-LBL T123. In kind it is in vivo, human. The conditions noted are these: result in words. How it is done:
as §4, §3

Another series concerns FL^T174 PDX. Put plainly: PDX model tumor growth and weight, FL T174. In kind it is in vivo, human. The conditions noted are these: result in words. How it is done: as §4, §3
The subject of a further series is DLBCL^T169 PDX. Put plainly: PDX model tumor growth and weight, DLBCL T169. The note with it: result in words. In kind it is in vivo, human. As for the experimental part: as §4, §3
A further series relates to DLBCL^T156 PDX. Put plainly: PDX model tumor growth and weight, DLBCL T156. In kind it is in vivo, human. The note with it: result in words. As for the experimental part: as §4, §3
Series [5] in a line: Serum ALT, AST, UREA and CRE (liver and renal function) in treated Myc^Eμ mice. The note with it: UREA, CRE, result in words.
Source text: The serum alanine transaminase (ALT) and aspartate transaminase (AST) levels of MycEµ mice with the indicated
treatment were detected to evaluate liver function (n = 6 per group). Data are represented as means ± SEM. (b) Th e
serum UREA and creatinine (CRE) levels of MycEµ mice with the indicated treatment were detected to evaluate
renal function (n = 6 per group). Data are represented as means ± SEM.

Regarding HLYVSPWGGKRREQLKHKLEQLR [PCM4], the “effect on Raji cell proliferation in combination with doxorubicin (DOX)” value with Raji cells is given as “synergistically inhibited Raji cell proliferation”. Besides, the “proliferation of lymphoma and leukemia cells” value in [1] was “inhibited the proliferation of most lymphoma and leukemia cells in a time-dependent manner”. In series [2], the “intrinsic clonogenicity of human lymphoma cells” value is reported as “reduced the intrinsic clonogenicity”. Further, in the series on primary mouse BCL cells, the “intrinsic clonogenicity of primary mouse BCL cells” value is recorded as “reduced the intrinsic clonogenicity”. Moreover, in series [3], the “off-target: interactions of TRIB3 with AKT, p62, COP1, and PML” value is “did not disturb the interactions of TRIB3 with these proteins”. For the same sequence, the MYC abundance result in the series on MYC protein is “reduced the MYC abundance”. The “foci of MAX-MYC colocalization” value in the series with MYC and MAX is on record as “reduced foci of MAX-MYC colocalization”. Also, the “survival rate of secondary recipients” value in series [4] is “better survival rate”. Also, in the series with Myc^Eμ BCL mice, the “therapeutic efficacy / survival rate in combination with DOX” value was “enhanced the therapeutic efficacy of DOX”. In addition, the “growth and weights of tumors, combination of PCM4 and DOX” value in the series with DLBCL^T64 PDX (PDX T64 (high TRIB3 and MYC expression), PCM4 5 mg/kg and DOX 2 mg/kg) is “further decreased the growth and weights of tumors”; in the series on TLBL^T123 PDX (PDX T123 (high TRIB3 and MYC expression), PCM4 5 mg/kg and DOX 2 mg/kg), “further decreased the growth and weights of tumors”; in the series with FL^T174 PDX (PDX T174 (high TRIB3 and MYC expression), PCM4 5 mg/kg and DOX 2 mg/kg), “further decreased the growth and weights of tumors”; with DLBCL^T169 PDX (PDX T169 (high TRIB3 and MYC expression), PCM4 5 mg/kg and DOX 2 mg/kg) it was “further decreased the growth and weights of tumors”; in the series with DLBCL^T156 PDX (PDX T156 (high TRIB3 and MYC expression), PCM4 5 mg/kg and DOX 2 mg/kg), “further decreased the growth and weights of tumors”. In addition, the “tumor growth of PDX” value in the series with DLBCL^T64 PDX (PDX T64, NSG mice, PCM4 5 mg/kg i.v. three times a week) was “inhibited the tumor growth”; in the series on TLBL^T123 PDX (PDX T123, NSG mice, PCM4 5 mg/kg i.v. three times a week) it was “inhibited the tumor growth”; in the series with FL^T174 PDX (PDX T174, NSG mice, PCM4 5 mg/kg i.v. three times a week), “inhibited the tumor growth”; in the series on DLBCL^T169 PDX (PDX T169, NSG mice, PCM4 5 mg/kg i.v. three times a week), “inhibited the tumor growth”; with DLBCL^T156 PDX (PDX T156, NSG mice, PCM4 5 mg/kg i.v. three times a week) it was “inhibited the tumor growth”. The “toxic effects (renal/liver function assays)” value in [5] was “did not exert obvious toxic effects”.

For the origin of these results see PMC7725785, “TRIB3 promotes MYC-associated lymphoma development through suppression of UBE3B-mediated MYC degradation” (Nature Communications, 2020).
